According to ChEMBL document CHEMBL3616452 (Eur J Med Chem, 2015):
Calls of active or inactive are those of the source. No cut-off for these calls is given here.

How the values were obtained:
[1] = Antiviral activity against Influenza A virus (A/WSN/1933(H1N1)) assessed as virus-mediated cytopathic effect in MDCK cells after 48 to 72 hrs; format: functional, cell-based
MDCK [2] = test: Inhibition of nucleoprotein synthesis in Influenza A virus (A/WSN/1933(H1N1)) infected in MDCK cells at 0.3 and 1 uM dosed > 0.5 hrs post infection by fluorescence analysis; format: functional, organism-based
MDCK [3] = test: Inhibition of nucleoprotein synthesis in Influenza A virus (A/WSN/1933(H1N1)) infected in MDCK cells at 0.3 uM dosed 0.5 hrs post infection by fluorescence analysis; format: functional, organism-based
MDCK [4] = test: Inhibition of nucleoprotein synthesis in Influenza A virus (A/WSN/1933(H1N1)) infected in MDCK cells at 1.0 uM dosed 0.5 hrs post infection by fluorescence analysis; format: functional, organism-based
MDCK [5] = test: Antiviral activity against wild-type Influenza A virus (A/WSN/1933(H1N1)) assessed as virus-mediated cytopathic effect in MDCK cells at 0.3 uM; format: functional, cell-based
MDCK [6] = test: Inhibition of nucleoprotein synthesis in Influenza A virus (A/WSN/1933(H1N1)) infected in MDCK cells by fluorescence analysis; format: functional, cell-based
Nucleoprotein = Nucleoprotein (Influenza A virus (strain A/Wilson-Smith/1933 H1N1), UniProt P15682); test: Binding affinity to Influenza A virus (A/WSN/1933(H1N1)) nucleoprotein transfected in 293T cells assessed as inhibition of RNA dependent RNA polymerase activity; format: cell-based
MDCK [7] = test: Inhibition of nucleoprotein synthesis in Influenza A virus (A/WSN/1933(H1N1)) infected in MDCK cells at 10.0 uM dosed post-infection by fluorescence analysis; format: functional, organism-based
MDCK [8] = test: Inhibition of nucleoprotein synthesis in Influenza A virus (A/WSN/1933(H1N1)) infected in MDCK cells at 15.0 uM by immunofluorescence assay; format: functional, cell-based
MDCK [9] = test: Inhibition of nucleoprotein synthesis in Influenza A virus (A/WSN/1933(H1N1)) infected in MDCK cells at 3.0 uM by immunofluorescence assay; format: functional, cell-based
[10] = Antiviral activity against wild-type Influenza A virus (A/WSN/1933(H1N1)) assessed as virus-mediated cytopathic effect in MDCK cells; format: functional, cell-based

Chain of Nucleoprotein (P15682 whole entry): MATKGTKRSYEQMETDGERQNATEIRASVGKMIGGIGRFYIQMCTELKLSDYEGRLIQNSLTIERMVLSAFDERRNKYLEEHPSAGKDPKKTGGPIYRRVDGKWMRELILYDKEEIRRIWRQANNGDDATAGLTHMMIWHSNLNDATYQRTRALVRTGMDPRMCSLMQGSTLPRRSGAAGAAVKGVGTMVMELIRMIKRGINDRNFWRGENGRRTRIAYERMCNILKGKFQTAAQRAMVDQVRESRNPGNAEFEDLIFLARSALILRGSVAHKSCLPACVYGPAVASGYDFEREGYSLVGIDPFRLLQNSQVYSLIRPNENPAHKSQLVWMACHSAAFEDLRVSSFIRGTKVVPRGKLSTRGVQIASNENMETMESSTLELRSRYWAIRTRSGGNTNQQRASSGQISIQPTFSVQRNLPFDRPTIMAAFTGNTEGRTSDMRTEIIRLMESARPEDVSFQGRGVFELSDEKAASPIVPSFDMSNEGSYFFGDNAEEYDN

SMILES: Cn1c(=O)c2c(-c3ccccc3)n3c(c2n(C)c1=O)C(c1ccccc1Cl)OCC3(C)C (centres undefined)
- EC50 [1]: 8 µM

SMILES: Cn1c(=O)c2c(-c3ccccc3)n3c(c2n(C)c1=O)C(c1ccccc1Cl)OCC3 (centres undefined)
- EC50 [1]: > 50 µM

SMILES: Cn1c(=O)c2c(-c3ccccc3)n3c(c2n(C)c1=O)C(C1CCCCC1)OCC3 (centres undefined)
- EC50 [1]: > 50 µM

SMILES: Cc1onc(-c2ccccc2Cl)c1C(=O)N1CCN(c2ccc([N+](=O)[O-])cc2)CC1
- inhibition (MDCK [2]): inactive
- inhibition (MDCK [3]): Active
- inhibition (MDCK [4]): Active
- Activity (MDCK [5]): Active
- inhibition (MDCK [6]): Active
- IC50 (Nucleoprotein): 0.23 µM

SMILES: CCCn1c(=O)c2c(-c3ccccc3)n3c(c2n(CCC)c1=O)C(C1CCCCC1)OCC3 (centres undefined)
- EC50 [1]: > 50 µM

SMILES: Cn1c(=O)c2c(-c3ccccc3)n3c(c2n(C)c1=O)C(C1CCCCC1)OCC3(C)C (centres undefined)
- EC50 [1]: > 50 µM

SMILES: Cn1c(=O)c2c(-c3ccccc3)n3c(c2n(C)c1=O)C(c1ccc(C(F)(F)F)cc1)OCC3(C)C (centres undefined)
- EC50 [1]: > 50 µM

SMILES: Cn1c(=O)c2c(-c3ccccc3)n3c(c2n(C)c1=O)C(c1ccccc1F)OCC3(C)C (centres undefined)
- EC50 [1]: 1 µM
- inhibition (MDCK [7]): Active
- inhibition (MDCK [8]): Active
- inhibition (MDCK [9]): inactive
- EC50 [10]: 2.3 µM
- inhibition (MDCK [6]; TDE = time-dependent effect): tde
- IC50 (Nucleoprotein): 4.9 µM

SMILES: Cn1c(=O)c2c(-c3ccccc3)n3c(c2n(C)c1=O)C(c1cccs1)OCC3(C)C (centres undefined)
- EC50 [1]: 6.8 µM

SMILES: COc1ccc(C2OCC(C)(C)n3c(-c4ccccc4)c4c(=O)n(C)c(=O)n(C)c4c32)cc1 (centres undefined)
- EC50 [1]: > 50 µM

SMILES: Cn1c(=O)c2c(-c3ccccc3)n3c(c2n(C)c1=O)C(c1ccc(Br)o1)OCC3 (centres undefined)
- EC50 [1]: > 50 µM

SMILES: Cn1c(=O)c2c(-c3ccccc3)n3c(c2n(C)c1=O)C(c1ccccc1)OCC3 (centres undefined)
- EC50 [1]: > 50 µM

SMILES: Cn1c(=O)c2c(-c3ccccc3)n3c(c2n(C)c1=O)C(c1ccccc1F)OCC3 (centres undefined)
- EC50 [1]: > 50 µM

SMILES: Cn1c(=O)c2c(-c3ccccc3)n3c(c2n(C)c1=O)C(c1cccs1)OCC3 (centres undefined)
- EC50 [1]: > 50 µM

SMILES: CCCC1OCCn2c(-c3ccccc3)c3c(=O)n(C)c(=O)n(C)c3c21 (centres undefined)
- EC50 [1]: > 50 µM

SMILES: Cn1c(=O)c2c(-c3ccccc3)n3c(c2n(C)c1=O)C(c1ccco1)OCC3 (centres undefined)
- EC50 [1]: > 50 µM

SMILES: Cn1c(=O)c2c(-c3ccccc3)n3c(c2n(C)c1=O)C(c1ccccc1)OCC3(C)C (centres undefined)
- EC50 [1]: 5.4 µM

SMILES: Cn1c(=O)c2c(-c3ccccc3)n3c(c2n(C)c1=O)C(C1CCCC1)OCC3 (centres undefined)
- EC50 [1]: > 50 µM
